Measured values published in the supplement of paper PMC10307832.

How the values were obtained:
Test in all cases: relative viability (nuclei count vs DMSO), 5 days (fraction); higher = more cells survive
SW 900 = tested on: SW 900
How it was run: (§1)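 Lung cancer cell lines in 1536-well plates got either a single drug or a fixed anchor-drug dose together with five library-drug doses (not always all listed) in √10 steps, by pin tool, on the day after seeding. Nuclei were counted after 5 days, and relative viability is the treated-to-vehicle ratio of nuclei counts. Values are medians of duplicate plates.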

NCI-H1793 = tested on: NCI-H1793
How it was run: as §1

PC-3 [JPC-3] = tested on: PC-3 [JPC-3]
How it was run: as §1

H3255 = tested on: H3255
How it was run: as §1

NCI-H596 = tested on: NCI-H596
How it was run: as §1

201T = tested on: 201T
How it was run: as §1

PC-14 = tested on: PC-14
How it was run: as §1

NCI-H2228 = tested on: NCI-H2228
How it was run: as §1

LK-2 = tested on: LK-2
How it was run: as §1

NCI-H2347 = tested on: NCI-H2347
How it was run: as §1

NCI-H727 = tested on: NCI-H727
How it was run: as §1

A-427 = tested on: A-427
How it was run: as §1

NCI-H23 = tested on: NCI-H23
How it was run: as §1

LCLC-97TM1 = tested on: LCLC-97TM1
How it was run: as §1

LCLC-103H = tested on: LCLC-103H
How it was run: as §1

COR-L23 = tested on: COR-L23
How it was run: as §1

LC-2-ad = tested on: LC-2-ad
How it was run: as §1

SW 1573 = tested on: SW 1573
How it was run: as §1

HCC-44 = tested on: HCC-44
How it was run: as §1

NCI-H460 = tested on: NCI-H460
How it was run: as §1

NCI-H1650 = tested on: NCI-H1650
How it was run: as §1

LU99A = tested on: LU99A
How it was run: as §1

## CCN(CC)CCCCNc1ncc2cc(-c3cc(OC)cc(OC)c3)c(NC(=O)NC(C)(C)C)nc2n1 + O=C(CCCCCCC(=O)Nc1ccccc1)NO [Vorinostat] (partner 1 µM)
SW 900; first compound 0.01 µM
  relative viability: 0.551
SW 900; first compound 0.03162 µM
  relative viability: 0.626
SW 900; first compound 0.1 µM
  relative viability: 0.44
SW 900; first compound 0.3162 µM
  relative viability: 0.412
SW 900; first compound 1 µM
  relative viability: 0.254
NCI-H1793; first compound 0.01 µM
  relative viability: 0.724
NCI-H1793; first compound 0.03162 µM
  relative viability: 0.707
NCI-H1793; first compound 0.1 µM
  relative viability: 0.898
NCI-H1793; first compound 0.3162 µM
  relative viability: 0.816
NCI-H1793; first compound 1 µM
  relative viability: 0.599
PC-3 [JPC-3]; first compound 0.03162 µM
  relative viability: 0.659
PC-3 [JPC-3]; first compound 0.1 µM
  relative viability: 0.937
PC-3 [JPC-3]; first compound 0.3162 µM
  relative viability: 1.18
PC-3 [JPC-3]; first compound 1 µM
  relative viability: 0.698
H3255; first compound 0.01 µM
  relative viability: 0.702
H3255; first compound 0.1 µM
  relative viability: 0.946
H3255; first compound 0.3162 µM
  relative viability: 1.02
H3255; first compound 1 µM
  relative viability: 0.785
NCI-H596; first compound 0.01 µM
  relative viability: 0.658
NCI-H596; first compound 0.03162 µM
  relative viability: 0.699
NCI-H596; first compound 0.1 µM
  relative viability: 0.597
NCI-H596; first compound 0.3162 µM
  relative viability: 0.625
NCI-H596; first compound 1 µM
  relative viability: 0.579
201T; first compound 0.01 µM
  relative viability: 1
201T; first compound 0.03162 µM
  relative viability: 1.03
201T; first compound 0.1 µM
  relative viability: 0.973
201T; first compound 0.3162 µM
  relative viability: 0.981
201T; first compound 1 µM
  relative viability: 0.887
PC-14; first compound 0.01 µM
  relative viability: 0.708
PC-14; first compound 0.03162 µM
  relative viability: 0.84
PC-14; first compound 0.1 µM
  relative viability: 0.969
PC-14; first compound 0.3162 µM
  relative viability: 0.881
PC-14; first compound 1 µM
  relative viability: 0.622
NCI-H2228; first compound 0.01 µM
  relative viability: 0.643
NCI-H2228; first compound 0.03162 µM
  relative viability: 0.515
NCI-H2228; first compound 0.1 µM
  relative viability: 0.807
NCI-H2228; first compound 0.3162 µM
  relative viability: 0.794
NCI-H2228; first compound 1 µM
  relative viability: 0.595
LK-2; first compound 0.01 µM
  relative viability: 0.266
LK-2; first compound 0.03162 µM
  relative viability: 0.213
LK-2; first compound 0.1 µM
  relative viability: 0.2
LK-2; first compound 0.3162 µM
  relative viability: 0.235
LK-2; first compound 1 µM
  relative viability: 0.252
NCI-H2347; first compound 0.01 µM
  relative viability: 0.509
NCI-H2347; first compound 0.03162 µM
  relative viability: 0.543
NCI-H2347; first compound 0.1 µM
  relative viability: 0.705
NCI-H2347; first compound 0.3162 µM
  relative viability: 0.588
NCI-H2347; first compound 1 µM
  relative viability: 0.472
NCI-H727; first compound 0.01 µM
  relative viability: 1.2
NCI-H727; first compound 0.03162 µM
  relative viability: 1.09
NCI-H727; first compound 0.1 µM
  relative viability: 1.47
NCI-H727; first compound 0.3162 µM
  relative viability: 1.23
NCI-H727; first compound 1 µM
  relative viability: 1.23
A-427; first compound 0.01 µM
  relative viability: 0.806
A-427; first compound 0.03162 µM
  relative viability: 0.919
A-427; first compound 0.1 µM
  relative viability: 1.02
A-427; first compound 0.3162 µM
  relative viability: 0.926
A-427; first compound 1 µM
  relative viability: 0.817
NCI-H23; first compound 0.01 µM
  relative viability: 0.615
NCI-H23; first compound 0.03162 µM
  relative viability: 0.711
NCI-H23; first compound 0.1 µM
  relative viability: 0.715
NCI-H23; first compound 0.3162 µM
  relative viability: 0.467
NCI-H23; first compound 1 µM
  relative viability: 0.581
LCLC-97TM1; first compound 0.01 µM
  relative viability: 0.805
LCLC-97TM1; first compound 0.03162 µM
  relative viability: 0.779
LCLC-97TM1; first compound 0.1 µM
  relative viability: 0.615
LCLC-97TM1; first compound 0.3162 µM
  relative viability: 0.865
LCLC-97TM1; first compound 1 µM
  relative viability: 0.699
LCLC-103H; first compound 0.01 µM
  relative viability: 0.776
LCLC-103H; first compound 0.03162 µM
  relative viability: 0.805
LCLC-103H; first compound 0.1 µM
  relative viability: 0.775
LCLC-103H; first compound 0.3162 µM
  relative viability: 0.788
LCLC-103H; first compound 1 µM
  relative viability: 0.769
COR-L23; first compound 0.01 µM
  relative viability: 0.467
COR-L23; first compound 0.03162 µM
  relative viability: 0.495
COR-L23; first compound 0.1 µM
  relative viability: 0.379
COR-L23; first compound 0.3162 µM
  relative viability: 0.593
COR-L23; first compound 1 µM
  relative viability: 0.434
LC-2-ad; first compound 0.01 µM
  relative viability: 0.716
LC-2-ad; first compound 0.03162 µM
  relative viability: 0.798
LC-2-ad; first compound 0.1 µM
  relative viability: 0.76
LC-2-ad; first compound 0.3162 µM
  relative viability: 0.739
LC-2-ad; first compound 1 µM
  relative viability: 0.66
SW 1573; first compound 0.01 µM
  relative viability: 0.79
SW 1573; first compound 0.03162 µM
  relative viability: 0.959
SW 1573; first compound 0.1 µM
  relative viability: 0.952
SW 1573; first compound 0.3162 µM
  relative viability: 0.707
SW 1573; first compound 1 µM
  relative viability: 0.705
HCC-44; first compound 0.01 µM
  relative viability: 1.11
HCC-44; first compound 0.03162 µM
  relative viability: 1.08
HCC-44; first compound 0.1 µM
  relative viability: 1.16
HCC-44; first compound 0.3162 µM
  relative viability: 1.08
HCC-44; first compound 1 µM
  relative viability: 1.15
NCI-H460; first compound 0.01 µM
  relative viability: 0.817
NCI-H460; first compound 0.03162 µM
  relative viability: 0.793
NCI-H460; first compound 0.1 µM
  relative viability: 1.39
NCI-H460; first compound 0.3162 µM
  relative viability: 0.763
NCI-H460; first compound 1 µM
  relative viability: 0.557
NCI-H1650; first compound 0.01 µM
  relative viability: 0.625
NCI-H1650; first compound 0.03162 µM
  relative viability: 0.616
NCI-H1650; first compound 0.1 µM
  relative viability: 0.531
NCI-H1650; first compound 0.3162 µM
  relative viability: 0.655
NCI-H1650; first compound 1 µM
  relative viability: 0.432
LU99A; first compound 0.01 µM
  relative viability: 0.528
LU99A; first compound 0.03162 µM
  relative viability: 0.601
LU99A; first compound 0.1 µM
  relative viability: 0.541
LU99A; first compound 0.3162 µM
  relative viability: 0.529
LU99A; first compound 1 µM
  relative viability: 0.423
